Structures are written as SMILES. Converted amounts (≈) assume the structure as drawn.

What is called IC50 is the point on the concentration scale where inhibition reaches its midpoint. Higher therefore signals weaker potency. Broadly, the inhibition is the relative decrease from the control value, in per cent. Lower therefore signals a response near the control. One may read the % inhibition as the relative decrease from the control value, in per cent. A lower % inhibition goes with a response near the control. The melting point is the temperature of the solid-liquid transition.

For the first series, the system named is Candida albicans. In words: In vitro antifungal screening, tube dilution method. The following applies: Candida albicans; C. albican; Sabouraud dextrose broth, 37 ± 1 °C, 48 h; read-out: Minimum inhibitory concentration. In kind it is cell-based. How it is done:
(§1) The in vitro antimicrobial screening of the synthesized 1,2,4-triazole derivatives (T1–T20) in μM was determined against Gram-positive Bacillus subtilis, […], Gram-negative Escherichia coli bacterium and fungal strains Candida albicans and Aspergillus niger by tube dilution method using ciprofloxacin, amoxycillin (antibacterial) and fluconazole (antifungal) as reference drugs. DMSO was used to dissolve the reference and sample derivatives (T1–T20). Dilutions were prepared in nutrient broth (I.P.) for bacterial (incubated at 37 ± 1 °C for 24 h) and Sabouraud dextrose broth (I.P.) for fungal species (37 ± 1 °C for 48 h for C. albicans) and (25 ± 1 °C for 7 days for A. niger) (Table 3, Figs. 4 and 5).
With `CCCCCCCCCCCCCCCc1nnc(S)n1N=Cc1ccc(OC)c(OC)c1` [Compound T4], the MIC was 52.6 µM (≈ 25 µg/mL).
The same measure, in the same setting: the value for `CCCCCCCCCCCCCCCc1nnc(S)n1N=Cc1cc(OC)c(OC)c(OC)c1` [Compound T5] was 12.3 µM (≈ 6.21 µg/mL).
The same measure, in the same setting: the value for `OC(Cn1cncn1)(Cn1cncn1)c1ccc(F)cc1F` [Fluconazole, reference compound] was 40.8 µM (≈ 12.5 µg/mL).

The test system of the next series is Aspergillus niger. The series is described as above. The following applies: A. niger; Sabouraud dextrose broth, 25 ± 1 °C, 7 days; read-out: Minimum inhibitory concentration. In kind it is cell-based. The protocol:
as §1
As to `CCCCCCCCCCCCCCCc1nnc(S)n1N=Cc1cc(OC)c(OC)c(OC)c1` [Compound T5], the MIC is listed as 99.0 µM (≈ 50 µg/mL).

The same series, now with this note: Aspergillus niger, 168 h; A. niger; Sabouraud dextrose broth, 25 ± 1 °C, 7 days; read-out: Minimum inhibitory concentration.
Regarding `CCCCCCCCCCCCCCCc1nnc(S)n1N=Cc1ccc(OC)c(OC)c1` [Compound T4], the MIC worked out at 105 µM (≈ 50 µg/mL).
Same read-out and setting: the value for `CCCCCCCCCCCCCCCc1nnc(S)n1N=Cc1cc(OC)c(OC)c(OC)c1` [Compound T5] was 99 µM (≈ 50 µg/mL); that for `OC(Cn1cncn1)(Cn1cncn1)c1ccc(F)cc1F` [Fluconazole, reference compound] was 20.4 µM (≈ 6.25 µg/mL).

A further series deals with Jack Bean Urease (Canavalia ensiformis, UniProt P07374). In words: biochemical.
Chain of Jack Bean Urease (P07374 whole entry, looked up): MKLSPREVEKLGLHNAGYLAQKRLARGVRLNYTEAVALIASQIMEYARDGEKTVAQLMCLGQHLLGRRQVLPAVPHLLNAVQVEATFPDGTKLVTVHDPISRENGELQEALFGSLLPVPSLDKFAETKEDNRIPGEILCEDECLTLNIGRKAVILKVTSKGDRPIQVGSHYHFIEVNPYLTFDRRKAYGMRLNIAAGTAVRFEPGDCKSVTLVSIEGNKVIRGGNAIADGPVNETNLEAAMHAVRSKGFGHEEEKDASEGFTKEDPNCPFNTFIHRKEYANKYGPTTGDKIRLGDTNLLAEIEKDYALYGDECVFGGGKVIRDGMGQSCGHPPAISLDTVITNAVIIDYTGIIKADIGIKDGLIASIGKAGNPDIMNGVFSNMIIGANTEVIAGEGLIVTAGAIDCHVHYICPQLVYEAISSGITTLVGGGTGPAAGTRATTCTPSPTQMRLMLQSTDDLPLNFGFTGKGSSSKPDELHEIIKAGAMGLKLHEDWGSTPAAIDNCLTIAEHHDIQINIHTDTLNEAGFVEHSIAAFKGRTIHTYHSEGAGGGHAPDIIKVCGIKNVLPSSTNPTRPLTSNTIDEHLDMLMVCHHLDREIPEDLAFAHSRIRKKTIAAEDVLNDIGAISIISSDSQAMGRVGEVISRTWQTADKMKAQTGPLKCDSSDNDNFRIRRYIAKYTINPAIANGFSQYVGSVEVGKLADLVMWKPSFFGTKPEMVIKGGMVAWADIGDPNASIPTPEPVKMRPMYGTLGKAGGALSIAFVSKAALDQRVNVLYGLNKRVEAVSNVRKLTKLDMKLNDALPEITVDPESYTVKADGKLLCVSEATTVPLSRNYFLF
Conditions: not given
The protocol: Urease inhibitory potential for each synthesisized compound (T1–T20) was evaluated using Jack Bean Urease by Indophenol method (Table 5, Figs. 9, 10, 11). 250 µl of jack bean urease (4U) was mixed with 250 µl of different synthesized test compounds and standard of different concentrations [dissolved in DMSO/H2O mixture (1:1 v/v)]. The mixture was pre-incubated for 1 h at 37 °C in test tubes. 2 ml of 100 mM phosphate buffer (pH 6.8) containing 500 mM urea and 0.002% phenol red as an indicator were added in sample test tubes after pre incubation and again incubated at room temperature. Absorbance of reaction mixture was recorded by ELISA at 570 nm. Ammonium carbonate increased the pH of phosphate buffer from 6.8 to 7.7 which was produced from urea by urease enzyme and the end peak was measured by the colour of phenol red indicator [16].
The percentage inhibition of urease enzyme was calculated by using following formula: I%=Acontrol-Asample/Acontrol×100,
where Acontrol is the absorbance of the control; Asample is the absorbance of the test compound.
With `CCCCCCCCCCCCCCCc1nnc(S)n1N=Cc1ccc(OC)c(OC)c1` [Compound T4], it took 106 µM to reach half-maximal inhibition (IC50), the inhibition at 25 µg/mL was determined as 35.5%, at 50 µg/mL the inhibition was 49.5% and the inhibition at 75 µg/mL came out at 63.7%. The same compound gave an inhibition at 100 µg/mL of 79.5%.
In the same order, the values of `CCCCCCCCCCCCCCCc1nnc(S)n1N=Cc1cc(OC)c(OC)c(OC)c1` [Compound T5] are 108 µM, 23.3%, 44.4%, 70.9% and 90.9%.

The same series, now with this note: urease inhibition.
`NC(N)=S` [Thiourea, reference compound] gave an IC50 of 54.25 µg/mL.

Still in this series, the particulars now being: urease, 25 µg/ml.
For `NC(N)=S` [Thiourea, reference compound], the “% inhibition” value was 29.98%.

The same series, now with this note: urease, 50 µg/ml.
Turning to `NC(N)=S` [Thiourea, reference compound], the “% inhibition” value is 46.76%.

The same series, now with this note: urease, 75 µg/ml.
`NC(N)=S` [Thiourea, reference compound]: the “% inhibition” value is 67.78%.

The same series, now with this note: urease, 100 µg/ml.
For `NC(N)=S` [Thiourea, reference compound], the “% inhibition” value was found to be 76.78%.

A further series concerns HCT116 (human colon cancer cells). In words: Anticancer evaluation, SRB assay. In kind it is cell-based. The following applies: Homo sapiens, HCT-116; HCT116, 72 h, SRB; mean of at least triplicates. How it is done:
HCT116 (human colon cancer cells) were seeded at 2500 cells/well (96 well plate), allowed to attach overnight, exposed to the respective compounds for 72 h and subjected to SRB assay (570 nm). Data represent mean IC50 of at least triplicates. The compounds were all dissolved in DMSO as stock of 100 mg/ml. […] The highest concentration of each compound tested (100 μg/ml) contained only 0.1% DMSO.
The compound `O=c1[nH]cc(F)c(=O)[nH]1` [Compound 5-FU, Fluorouracil, reference compound] returned a half-maximal inhibitory concentration (IC50) of 25.4 µM.
The same measure, in the same setting: the value for `CCCCCCCCCCCCCCCc1nnc(S)n1N=Cc1ccc(OC)c(OC)c1` [Compound T4] was 7.79 µM; that for `CCCCCCCCCCCCCCCc1nnc(S)n1N=Cc1cc(OC)c(OC)c(OC)c1` [Compound T5] was over 198 µM.

The series is the same for the next values; noted with them: Homo sapiens, HCT-116; HCT116; value given in dose-response figure.
`O=c1[nH]cc(F)c(=O)[nH]1` [Compound 5-FU, Fluorouracil, reference compound] yielded a concentration for half-maximal inhibition (IC50) of 3.3 µg/mL.

Tested on in another series: not listed separately
Put plainly: DPPH free radical scavenging activity. The following applies: DPPH antioxidant. The protocol: In the DPPH free radical scavenging activity, compounds (T1–T20) were evaluated for their free radical scavenging activity with ascorbic acid as standard compound. The scavenging effect increased with the increasing concentrations of sample compounds. DPPH is relatively stable nitrogen centered free radical that easily accepts an electron or hydrogen radical to become a stable diamagnetic molecule. DPPH radicals react with suitable reducing agents as a result of which the electrons become paired off forming the corresponding hydrazine. The solution therefore loses colour stoichometrically depending on the number of electrons taken up. […] The sample solutions were incubated for 30 min at room temperature in dark place and after then absorbance was recorded against the blank solution at 517 nm. The relative percent of DPPH scavenging activity was calculated according to the following equation: I%=Acontrol-Asample/Acontrol×100,
where Acontrol is the absorbance of the control, Asample is the absorbance of the test compound.
For orientation: Loss of DPPH colour is used to gauge radical scavenging.
On to `O=C1O[C@H]([C@@H](O)CO)C(O)=C1O` [Ascorbic acid, reference compound], for which the half-inhibitory concentration (IC50) worked out at 35.44 µg/mL (≈ 201 µM).
Same read-out and setting: the value for `CCCCCCCCCCCCCCCc1nnc(S)n1N=Cc1ccc(OC)c(OC)c1` [Compound T4] was 37.50 µg/mL (≈ 79 µM); that for `CCCCCCCCCCCCCCCc1nnc(S)n1N=Cc1cc(OC)c(OC)c(OC)c1` [Compound T5] was 39.13 µg/mL (≈ 77.5 µM).

Still in this series, the particulars now being: DPPH, 25 µg/ml.
For the compound `O=C1O[C@H]([C@@H](O)CO)C(O)=C1O` [Ascorbic acid, reference compound], the “% inhibition” value is listed as 38.67%.
Same read-out and setting: the value for `CCCCCCCCCCCCCCCc1nnc(S)n1N=Cc1ccc(OC)c(OC)c1` [Compound T4] was 38.45%; that for `CCCCCCCCCCCCCCCc1nnc(S)n1N=Cc1cc(OC)c(OC)c(OC)c1` [Compound T5] was 42.34%.

The same series, now with this note: DPPH, 50 µg/ml.
As for `O=C1O[C@H]([C@@H](O)CO)C(O)=C1O` [Ascorbic acid, reference compound], the “% inhibition” value came to 63.68%.
Same read-out and setting: the value for `CCCCCCCCCCCCCCCc1nnc(S)n1N=Cc1ccc(OC)c(OC)c1` [Compound T4] was 58.34%; that for `CCCCCCCCCCCCCCCc1nnc(S)n1N=Cc1cc(OC)c(OC)c(OC)c1` [Compound T5] was 55.67%.

Staying with this series, now noted: DPPH, 75 µg/ml.
`O=C1O[C@H]([C@@H](O)CO)C(O)=C1O` [Ascorbic acid, reference compound]: the “% inhibition” value is reported as 84.78%.
On the same count and under the same terms, the value for `CCCCCCCCCCCCCCCc1nnc(S)n1N=Cc1ccc(OC)c(OC)c1` [Compound T4] was 88.61%; that for `CCCCCCCCCCCCCCCc1nnc(S)n1N=Cc1cc(OC)c(OC)c(OC)c1` [Compound T5] was 68.98%.

Staying with this series, now noted: DPPH, 100 µg/ml.
In the case of `O=C1O[C@H]([C@@H](O)CO)C(O)=C1O` [Ascorbic acid, reference compound], the “% inhibition” value came out at 94.45%.
On the same count and under the same terms, the value for `CCCCCCCCCCCCCCCc1nnc(S)n1N=Cc1ccc(OC)c(OC)c1` [Compound T4] was 98.89%; that for `CCCCCCCCCCCCCCCc1nnc(S)n1N=Cc1cc(OC)c(OC)c(OC)c1` [Compound T5] was 78.12%.

In a further series the test system is Pseudomonas aeruginosa. Put plainly: In vitro antimicrobial screening, tube dilution method. In kind it is cell-based. As to conditions: Pseudomonas aeruginosa; P. aeruginosa, Gram −ve; nutrient broth, 37 ± 1 °C, 24 h; read-out: Minimum inhibitory concentration. How it is done: as §1
Consider `CCCCCCCCCCCCCCCc1nnc(S)n1N=Cc1ccc(OC)c(OC)c1` [Compound T4], for which the MIC was 52.6 µM (≈ 25 µg/mL).
Take `CCCCCCCCCCCCCCCc1nnc(S)n1N=Cc1cc(OC)c(OC)c(OC)c1` [Compound T5]: the MIC came out at 12.3 µM (≈ 6.21 µg/mL).

The next series relates to Escherichia coli. Described as above. In kind it is cell-based. The following applies: Escherichia coli; E. coli, Gram −ve; nutrient broth, 37 ± 1 °C, 24 h; read-out: Minimum inhibitory concentration. The protocol:
as §1
As for `CCCCCCCCCCCCCCCc1nnc(S)n1N=Cc1ccc(OC)c(OC)c1` [Compound T4], the MIC came to 105 µM (≈ 50 µg/mL).
Regarding `CCCCCCCCCCCCCCCc1nnc(S)n1N=Cc1cc(OC)c(OC)c(OC)c1` [Compound T5], the MIC worked out at 24.7 µM (≈ 12.5 µg/mL).

A further series concerns Bacillus subtilis. Described as above. In kind it is cell-based. The following applies: Bacillus subtilis; B. substilis, Gram +ve; nutrient broth, 37 ± 1 °C, 24 h; read-out: Minimum inhibitory concentration. The protocol:
as §1
As for `CCCCCCCCCCCCCCCc1nnc(S)n1N=Cc1ccc(OC)c(OC)c1` [Compound T4], the MIC stood at 52.6 µM (≈ 25 µg/mL).
Still for that read-out and setting: the value for `CCCCCCCCCCCCCCCc1nnc(S)n1N=Cc1cc(OC)c(OC)c(OC)c1` [Compound T5] was 24.7 µM (≈ 12.5 µg/mL).

Tested on in another series: not given
Test: not given
Conditions: not given
Compound `CCCCCCCCCCCCCCCc1nnc(S)n1N=Cc1ccc(OC)c(OC)c1` [Compound T4] returned a melting point of 188 to 191 °C.
